Data on three compounds can be found in US20260257993A1, “COMPOUND, RUBBER BLEND CONTAINING THE COMPOUND, VEHICLE TIRE COMPRISING THE RUBBER BLEND IN AT LEAST ONE COMPONENT, PROCESS FOR PRODUCING THE COMPOUND, AND USE OF THE COMPOUND AS AN AGEING PROTECTANT AND/OR ANTIOZONANT AND/OR DYE” (Continental Reifen Deutschland GmbH, priority 2021, published 2026).

This experiment in a line: Measurement of oxidation induction time (OIT) by DSC. The note with it: with liquid polyisoprene LIR-50, isothermal 180° C., O2 atmosphere 50 mL/min, DSC peak. As for the experimental part: The compounds of formula II) and III) were investigated under laboratory conditions for their potential protective effect as aging stabilizers by measurement of the oxidation induction time.
To this end the compounds of formula II) and III) and 6-PPD in each case together with a polymer (liquid synthetic polyisoprene (IR), LIR-50, Kuraray, weight average molecular weight distribution Mw=54 000 g/mol, glass transition temperature Tg=−63° C.) were heated at constant temperature (180° C.) until onset of oxidation (start temperature 35° C., heating to 170° C. at a heating rate of 20 K/min (kelvin per minute), heating to 180° C. at a heating rate of 1 K/min; purge gas: nitrogen (N2), volume flow 50 mL/min). The specimen was isothermally maintained for 5 minutes at 180° C. under an N2 atmosphere and the atmosphere was then switched to an 02 atmosphere (volume flow 50 mL/min).
Oxidation was determined via a peak using DSC (differential scanning calorimetry).
The time in minutes to oxidation was measured.
On the technique in general: DSC measures the heat that a sample takes up or gives off during a temperature scan.
In the case of `CC(C)CC(C)Nc1ccc(Nc2ccccc2)cc1` (stereo not drawn) [6-PPD, N-(1,3-dimethylbutyl)-N′-phenyl-p-phenylenediamine, reference compound], the “Oxidation induction time: time to oxidation” value (“Oxidation induction time: time” for short) stood at 116 ± 10 min.

Regarding `CC(C)CC(C)Nc1ccc2[nH]c(-c3ccccc3)cc2c1` (stereo not drawn) [formula II), 2-phenyl-5-(1,3-dimethylbutylamino)-1H-indole], the “Oxidation induction time: time” value is listed as 105 ± 10 min.

For `CC(C)CC(C)Nc1ccc2[nH]c(C3CCCCC3)cc2c1` (stereo not drawn) [formula III), 2-cyclohexyl-5-(1,3-dimethylbutylamino)-1H-indole], the “Oxidation induction time: time” value was 205 ± 10 min.
